These compounds were tested against AMPK (assay: AMPK activation, enzyme-linked immunosorbent assay). Conditions: Table 8, compounds of Table 1.
Type: biochemical
Method in brief: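 AMPK activation by test compounds was measured by enzyme-linked immunosorbent assay.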

| EC50 | SMILES |
| --- | --- |
| 1 to 5 µM | O=C(NC1CCN(Cc2ccccc2)CC1)c1ccc(OC2CCN(c3ccc(C(F)(F)F)cc3)CC2)cn1 [Compound 1-38, N-(1-benzylpiperidin-4-yl)-5-(1-(4-(trifluoromethyl)phenyl)piperidin-4-yloxy)picolinamide] |
| 0.1 to 0.5 µM | O=C(NC1CCN(Cc2ccccc2)CC1)c1cc2cc(OC3CCN(Cc4ccc(F)c(F)c4)CC3)ccc2o1 [Compound 1-74, N-(1-benzylpiperidin-4-yl)-5-(1-(3,4-difluorobenzyl)piperidin-4-yloxy)benzofuran-2-carboxamide] |
| 0.5 to 1 µM | O=C(NC1CCN(Cc2ccccn2)CC1)c1cc2ccc(OC3CCN(c4ccc(OC(F)(F)F)cc4)CC3)cc2o1 [Compound 1-92, N-(1-(pyridin-2-ylmethyl)piperidin-4-yl)-6-(1-(4-(trifluoromethoxy)phenyl)piperidin-4-yloxy)benzofuran-2-carboxamide] |
| 0.1 to 0.5 µM | N#Cc1ccc(N2CCC(Oc3ccc(S(=O)(=O)NC4CCN(Cc5ccncc5)CC4)cn3)CC2)cc1 [Compound 1-52, N-(1-(pyridin-4-ylmethyl)piperidin-4-yl)-6-(1-(4-cyanophenyl)piperidin-4-yloxy)pyridine-3-sulfonamide] |
| 0.1 to 0.5 µM | CC(C)(C)OC(=O)N1CCC(NC(=O)c2cc3ccc(OC4CCN(c5ccc(OC(F)(F)F)cc5)CC4)cc3o2)CC1 [Compound 1-81, tert-butyl 4-(6-(1-(4-(trifluoromethoxy)phenyl)piperidin-4-yloxy)benzofuran-2-carboxamido) piperidine-1-carboxylate] |

Same assay, conditions: Table 9, compounds of Table 2

| EC50 | SMILES |
| --- | --- |
| 0.5 to 1 µM | O=C(NC1CCN(C(=O)c2ccncc2)CC1)c1ccc2[nH]c3c(c2c1)CN(Cc1ccc(C(F)(F)F)cc1)CC3 [Compound 2-51, N-(1-isonicotinoylpiperidin-4-yl)-2-(4-(trifluoromethyl)benzyl)-2,3,4,5-tetrahydro-1H-pyrido[4,3-b]indole-8-carboxamide] |

Same assay, conditions: Table 12, compounds of Table 5

| SMILES | EC50 |
| --- | --- |
| O=C(c1ccc(OC2CCN(Cc3ccccc3)CC2)cc1)N1CCN(Cc2ccccn2)CC1 [Compound 5-105, (4-(1-benzylpiperidin-4-yloxy)phenyl)(4-(pyridin-2-ylmethyl)piperazin-1-yl)methanone] | 10 to 20 µM |
| N#Cc1ccc(N2CCC(Oc3cccc(C(=O)NC4CCN(Cc5ccncc5)CC4)c3)CC2)cc1 [Compound 5-88, N-(1-(pyridin-4-ylmethyl)piperidin-4-yl)-3-(1-(4-cyanophenyl)piperidin-4-yloxy)benzamide] | 1 to 10 µM |
| CC(C)(C)OC(=O)NCCCNC(=O)c1ccc(OC2CCN(Cc3ccc(C(F)(F)F)cc3)CC2)cc1 [Compound 5-95, tert-butyl 3-(4-(1-(4-(trifluoromethyl)benzyl)piperidin-4-yloxy)benzamido) propylcarbamate] | < 1 µM |
| N#Cc1ccc(CN2CCC(Oc3ccc(C(=O)NC4CCN(Cc5ccccc5)CC4)cc3F)CC2)cc1 [Compound 5-41, N-(1-benzylpiperidin-4-yl)-4-(1-(4-cyanobenzyl)piperidin-4-yloxy)-3-fluorobenzamide] | < 1 µM |
| COc1ccc(CN2CCC(NC(=O)c3cccc(OC4CCN(Cc5cnn(-c6ccccn6)c5)CC4)c3)CC2)cc1 [Compound 5-114, N-(1-(4-methoxybenzyl)piperidin-4-yl)-3-(1-((1-(pyridin-2-yl)-1H-pyrazol-4-yl)methyl)piperidin-4-yloxy)benzamide] | 1 to 10 µM |

Continued, values first:

| EC50 | SMILES |
| --- | --- |
| < 1 µM | O=C(NC1CCN(Cc2ccccc2)CC1)c1ccc(OC2CCN(Cc3ccc(Cl)c(Cl)c3)CC2)c(Cl)c1 [Compound 5-84, N-(1-benzylpiperidin-4-yl)-3-chloro-4-(1-(3,4-dichlorobenzyl)piperidin-4-yloxy)benzamide] |
| < 1 µM | COC(=O)c1ccc(CN2CCC(NC(=O)c3ccc(OC4CCN(c5ccc(C(F)(F)F)cc5)CC4)c(F)c3)CC2)cc1 [Compound 5-33, methyl 4-((4-(3-fluoro-4-(1-(4-(trifluoromethyl)phenyl)piperidin-4-yloxy)benzamido)piperidin-1-yl)methyl)benzoate] |

Same assay, conditions: Table 13, compounds of Table 6

| SMILES | EC50 |
| --- | --- |
| N#Cc1ccc(CN2CCC(NC(=O)c3cc4cc(NC(=O)c5cnn(-c6ccc(F)cc6)c5)ccc4o3)CC2)cc1 [Compound 6-66, N-(2-(1-(4-cyanobenzyl)piperidin-4-ylcarbamoyl)benzofuran-5-yl)-1-(4-fluorophenyl)-1H-pyrazole-4-carboxamide] | 0.1 to 1 µM |
| CS(=O)(=O)c1ccc(CN2CCN(C(=O)c3ccc4oc(C(=O)NC5CCN(Cc6cccc(C(F)(F)F)c6)CC5)cc4c3)CC2)cc1 [Compound 6-147, 5-(4-(4-(methylsulfonyl)benzyl)piperazine-1-carbonyl)-N-(1-(3-(trifluoromethyl)benzyl)piperidin-4-yl)benzofuran-2-carboxamide] | < 0.1 µM |
| O=C(NC1CCN(Cc2ccc(OC(F)(F)F)cc2)CC1)c1cc2cc(C(=O)N3CCN(Cc4ccc(-n5cccn5)cc4)CC3)ccc2o1 [Compound 6-97, 5-(4-(4-(1H-pyrazol-1-yl)benzyl)piperazine-1-carbonyl)-N-(1-(4-(trifluoromcthoxy)benzyl)piperidin-4-yl)benzofuran-2-carboxamide] | < 0.1 µM |
| CS(=O)(=O)c1ccc(N2CCN(C(=O)c3ccc4oc(C(=O)NC5CCN(Cc6ccc(C#N)cc6)CC5)cc4c3)CC2)cc1 [Compound 6-87, N-(1-(4-cyanobenzyl)piperidin-4-yl)-5-(4-(4-(methylsulfonyl)phenyl)piperazine-1-carbonyl) benzofuran-2-carboxamide] | 0.1 to 1 µM |

Continued, values first:

| EC50 | SMILES |
| --- | --- |
| < 0.1 µM | COc1ccc(CN2CCC(NC(=O)c3cc4cc(C(=O)N5CCN(Cc6ccc(S(=O)(=O)N7CCOCC7)cc6)CC5)ccc4o3)CC2)cc1F [Compound 6-163, N-(1-(3-fluoro-4-methoxybenzyl)piperidin-4-yl)-5-(4-(4-(morpholinosulfonyl)benzyl)piperazine-1-arbonyl) benzofuran-2-carboxamide] |
| < 0.1 µM | N#Cc1ccc(CN2CCC(NC(=O)c3cc4cc(C(=O)N5CCN(c6ccc(C(F)(F)F)cc6)CC5)ccc4o3)CC2)cc1 [Compound 6-116, N-(1-(4-cyanobenzyl)piperidin-4-yl)-5-(4-(4-(trifluoromethyl)phenyl)piperazine-1-carbonyl) benzofuran-2-carboxamide] |
| < 0.1 µM | CS(=O)(=O)c1ccc(CN2CCN(C(=O)c3ccc4oc(C(=O)NC5CCN(Cc6ccc(OC(F)(F)F)c(F)c6)CC5)cc4c3)CC2)cc1 [Compound 6-138, N-(1-(3-fluoro-4-(trifluoromethoxy)benzyl)piperidin-4-yl)-5-(4-(4-(methylsulfonyl)benzyl)piperazine-1-carbonyl) benzofuran-2-carboxamide] |
| < 0.1 µM | COc1ccc(CN2CCC(NC(=O)c3cc4cc(C(=O)N5CCN(c6ccc(C(F)(F)F)cc6)CC5)ccc4o3)CC2)cc1 [Compound 6-119, N-(1-(4-methoxybenzyl)piperidin-4-yl)-5-(4-(4-(trifluoromethyl)phenyl)piperazine-1-carbonyl) benzofuran-2-carboxamide] |
| 1 to 10 µM | COc1cccc(CN2CCC(NC(=O)c3cc4cc(C(=O)N5CCN(Cc6ccc(S(C)(=O)=O)cc6)CC5)ccc4o3)CC2)c1 [Compound 6-99, N-(1-(3-methoxybenzyl)piperidin-4-yl)-5-(4-(4-(methylsulfonyl)benzyl)piperazine-1-carbonyl) benzofuran-2-carboxamide] |
| < 0.1 µM | N#Cc1ccc(CN2CCC(NC(=O)c3cc4cc(C(=O)N5CCC(C(=O)c6ccc(F)cc6)CC5)ccc4o3)CC2)cc1 [Compound 6-16, N-(1-(4-cyanobenzyl)piperidin-4-yl)-5-(4-(4-fluorobenzoyl)piperidine-1-carbonyl)benzofuran-2-carboxamide] |

Same assay, conditions: Table 14, compounds of Table 7

| SMILES | EC50 |
| --- | --- |
| COCCN(C(=O)c1ccc(C(=O)N2CCC(C(=O)c3ccc(OC)cc3)CC2)nc1)C1CCN(Cc2ccc(OC(F)(F)F)cc2)CC1 [Compound 7-18, 6-(4-(4-methoxybenzoyl)piperidine-1-carbonyl)-N-(2-methoxyethyl)-N-(1-(4-(trifluoromethoxy)benzyl)piperidin-4-yl)nicotinamide] | < 1 µM |
| CC(=O)c1ccc(OC2CCN(C(=O)c3ccc(C(=O)NC4CCN(Cc5ccc(OC(F)(F)F)cc5)C[C@H]4F)cn3)CC2)cc1 (stereo partly drawn) [Compound 7-52, 6-(4-(4-acetylphenoxy)piperidine-1-carbonyl)-N-((3,4-trans)-3-fluoro-1-(4-(trifluoromethoxy)benzyl)piperidin-4-yl)nicotinamide] | < 1 µM |
| COc1ccc(CN2CCC(NC(=O)c3ccc(C(=O)N4CCCC(C(=O)c5ccc(OC)cc5)C4)nc3)CC2)cc1 (stereo not shown) [Compound 7-8, 6-(3-(4-methoxybenzoyl)piperidine-1-carbonyl)-N-(1-(4-methoxybenzyl)piperidin-4-yl)nicotinamide] | 1 to 10 µM |
| CC(=O)c1ccc(OC2CCN(C(=O)c3ccc(C(=O)NC4CCN(Cc5ccc(C#N)cc5)C[C@H]4F)cn3)CC2)cc1 (stereo partly drawn) [Compound 7-74, 6-(4-(4-acetylphenoxy)piperidine-1-carbonyl)-N-((3,4-trans)-1-(4-cyanobenzyl)-3-fluoropiperidin-4-yl)nicotinamide] | < 1 µM |
| COc1ccc(C(=O)C2CCN(C(=O)c3ccc(C(=O)NC4CCN(Cc5cccc(C#N)c5)C[C@H]4F)cn3)CC2)cc1 (stereo partly drawn) [Compound 7-29, N-((3,4-trans)-1-(3-cyanobenzyl)-3-fluoropiperidin-4-yl)-6-(4-(4-methoxybenzoyl)piperidine-1-carbonyl)nicotinamide] | < 1 µM |
| COc1ccc(C(=O)C2CCN(C(=O)c3ccc(C(=O)NC4CCN(Cc5cnn(C)c5)C[C@H]4F)cn3)CC2)cc1 (stereo partly drawn) [Compound 7-63, N-((3,4-trans)-3-fluoro-1-((1-methyl-1H-pyrazol-4-yl)methyl)piperidin-4-yl)-6-(4-(4-methoxybenzoyl)piperidine-1-carbonyl)nicotinamide] | 10 to 20 µM |

Other lines, results leading:

| EC50 | SMILES |
| --- | --- |
| < 1 µM | COc1ccc(C(=O)C2CCN(C(=O)c3ccc(C(=O)NC4CCN(Cc5ccc(OC)c(C#N)c5)C[C@@H]4C)cn3)CC2)cc1 (stereo partly drawn) [Compound 7-100, N-((3,4-cis)-1-(3-cyano-4-methoxybenzyl)-3-methylpiperidin-4-yl)-6-(4-(4-methoxybenzoyl)piperidine-1-carbonyl)nicotinamide] |
| 1 to 10 µM | COc1ccc(C(=O)C2CCCN(C(=O)c3ccc(C(=O)NC4CCN(Cc5ccc(C#N)cc5)CC4)cn3)C2)cc1 (stereo not shown) [Compound 7-7, N-(1-(4-cyanobenzyl)piperidin-4-yl)-6-(3-(4-methoxybenzoyl)piperidine-1-carbonyl)nicotinamide] |
